The source of these data is patent US11753407B2, “Compounds for treating spinal muscular atrophy” (PTC Therapeutics, Inc., priority 2012, dated 2023).

The test system of series [1] is Smn protein in SMA patient fibroblast cells (GM03813). In words: Smn protein assay in cultured cells (SMN HTRF). The series is classed as cell-based, human. The note with it: SMA patient fibroblast cells, 48 hours; for EC1.5x for Smn protein expression: 7-point concentration curve, SMN HTRF, concentration producing 1.5 times Smn protein vs DMSO vehicle control; for maximum fold (Fold) increase of Smn protein: 7-point concentration data, fold relative to vehicle control. A digest of the protocol:
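Patient-derived SMA fibroblasts are plated, given compound for 48 h, then lysed in RIPA buffer with protease inhibitors. Lysate Smn is detected by an anti-SMN d2/kryptate HTRF pair incubated overnight. The normalized ΔF is divided by the vehicle ΔF to give fold change, from which EC1.5× and maximum fold are taken.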
(In TR-FRET formats the signal depends on donor and acceptor labels being close together.)

In series [2] the test system is SMN2 minigene mRNA (SMN2-A minigene) in HEK293H cells. As to the kind of experiment: SMN2 minigene mRNA splicing RT-qPCR assay in cultured cells. The series is classed as cell-based, human. Particulars: Homo sapiens, HEK293-H; concentration increasing full length SMN2 mRNA 1.5-fold relative to vehicle-treated cells; HEK293H cells with SMN2-A minigene, 24 hours, 7-point concentration data; read-out: EC1.5x for production of full length SMN2 mRNA. A digest of the protocol:
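Cells are seeded, left to attach 4-6 h, then dosed with test compound across seven concentrations and incubated 24 h. Lysates undergo RT-qPCR with primers/probe specific to the exon 7-containing minigene transcript, co-amplified with GAPDH. Fold change over vehicle is calculated, and EC1.5× marks the 1.5-fold point.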

With `Cc1cn2nc(-c3cc(=O)n4cc(N5CC[C@H](CN)C5)ccc4n3)cc2c(C)n1` [Compound 797, 7-[(3R)-3-(aminomethyl)pyrrolidin-1-yl]-2-(4,6-dimethylpyrazolo[1,5-a]pyrazin-2-yl)-4H-pyrido[1,2-a]pyrimidin-4-one], the melting point (usually the temperature, or range, at which the solid turns liquid) fell in the range of 214 to 217 °C. In series [1], the “EC1.5x for Smn protein expression” value was “* (An EC1.5× for Smn protein expression between >3 μM and ≤10 μM is indicated by one star (*))”; the “maximum fold (Fold) increase of Smn protein” value (“maximum fold (Fold) increase” for short) was “*** (a fold increase between >1.35 and ≤1.5 is indicated by three stars (***))”. The EC (1.5-fold increase) in series [2] fell in the range of 1 to 3 µM.
On to `Cc1cn2nc(-c3cc(=O)n4cc(N5CC[C@H](CN(C)C)C5)ccc4n3)cc2c(C)n1` [Compound 799, 7-{(3R)-3-[(dimethylamino)methyl]pyrrolidin-1-yl}-2-(4,6-dimethylpyrazolo[1,5-a]pyrazin-2-yl)-4H-pyrido[1,2-a]pyrimidin-4-one], for which the melting point was in the range of 229 to 231 °C. In series [1], the “EC1.5x for Smn protein expression” value is listed as “**** (an EC1.5x≤0.3 μM is indicated by four stars (****))” and the “maximum fold (Fold) increase” value is given as “***** (a fold increase >1.65 is indicated by five stars (*****))”. Besides, the EC (1.5-fold increase) in series [2] was below 0.1 µM.
Taken in the same sequence, the figures for `Cc1cn2nc(-c3cc(=O)n4cc(C5C[C@H](C)N[C@@H](C)C5)ccc4n3)cc2c(C)n1` (stereo partly drawn) [Compound 800, 7-[(2S,6S)-2,6-dimethylpiperidin-4-yl]-2-(4,6-dimethylpyrazolo[1,5-a]pyrazin-2-yl)-4H-pyrido[1,2-a]pyrimidin-4-one] were 248 to 250 °C, “**** (an EC1.5x≤0.3 μM is indicated by four stars (****))”, “***** (a fold increase >1.65 is indicated by five stars (*****))” and below 0.1 µM.
Regarding `COc1ccc(-c2cc(=O)n3cc(N4CCNCC4)ccc3n2)cc1` [Cpd 1, 2-(4-methoxyphenyl)-7-(piperazin-1-yl)-4H-pyrido[1,2-a]pyrimidin-4-one], the melting point was in the range of 182 to 184 °C. In addition, in series [1], the “maximum fold (Fold) increase” value was “** (a fold increase between >1.2 and ≤1.35 is indicated by two stars (**))”. The EC (1.5-fold increase) in series [2] lay within 0.3 to 1 µM.
For `Cc1ccc2nc(-c3cc(=O)n4cc(N5CCNCC5)ccc4n3)cn2c1` [Cpd 29, 2-(6-methylimidazo[1,2-a]pyridin-2-yl)-7-(piperazin-1-yl)-4H-pyrido[1,2-a]pyrimidin-4-one], the melting point lay in the range of 193 to 198 °C. For the same compound, the “maximum fold (Fold) increase” value in series [1] is “*** (a fold increase between >1.35 and ≤1.5 is indicated by three stars (***))”. Further, in series [2], the EC (1.5-fold increase) fell in the range of 3 to 30 µM.
In turn, `COc1ccc(-c2cnc3cc(N4CCNCC4)ccn3c2=O)cc1OC` [Cpd 52, 3-(3,4-dimethoxyphenyl)-8-(piperazin-1-yl)-4H-pyrido[1,2-a]pyrimidin-4-one] displayed a melting point of 175 to 179 °C. Further, the “maximum fold (Fold) increase” value in series [1] is “* (A maximum fold increase of ≤1.2 is indicated by one star (*))”. Besides, the EC (1.5-fold increase) in series [2] lay within 3 to 30 µM.
`COc1ccc(-c2cc(=O)n3cc(N4CCNCC4)cc(OC)c3n2)cc1OC` [Cpd 70, 2-(3,4-dimethoxyphenyl)-9-methoxy-7-(piperazin-1-yl)-4H-pyrido[1,2-a]pyrimidin-4-one] gave a melting point of 185 to 187 °C. For the same compound, the “maximum fold (Fold) increase” value in series [1] is “* (A maximum fold increase of ≤1.2 is indicated by one star (*))”. In series [2], the EC (1.5-fold increase) was in the range of 1 to 3 µM.
Compound `COc1ccc(-c2cc(=O)n3cc(N4CCNCC4)ccc3n2)cc1F` [Cpd 72, 2-(3-fluoro-4-methoxyphenyl)-7-(piperazin-1-yl)-4H-pyrido[1,2-a]pyrimidin-4-one] displayed a melting point of 191 to 195 °C. For the same compound, in series [1], the “EC1.5x for Smn protein expression” value is “*** (an EC1.5× between >0.3 μM and ≤1 μM is indicated by three stars (***))”; the “maximum fold (Fold) increase” value was “*** (a fold increase between >1.35 and ≤1.5 is indicated by three stars (***))”. Moreover, the EC (1.5-fold increase) in series [2] is below 0.1 µM.
Take `Cc1cn2cc(-c3cc(=O)n4cc(N5CCNCC5)ccc4n3)nc2cn1` [Cpd 74, 2-(6-methylimidazo[1,2-a]pyrazin-2-yl)-7-(piperazin-1-yl)-4H-pyrido[1,2-a]pyrimidin-4-one]: the melting point was in the range of 221 to 225 °C. Besides, in series [1], the “EC1.5x for Smn protein expression” value was “*** (an EC1.5× between >0.3 μM and ≤1 μM is indicated by three stars (***))”; the “maximum fold (Fold) increase” value is listed as “***** (a fold increase >1.65 is indicated by five stars (*****))”. The EC (1.5-fold increase) in series [2] is below 0.1 µM.
`COc1ccc(-c2cc(=O)n3cc(N4CCNCC4)ccc3n2)cc1OC(F)(F)F` [Cpd 81, 2-[4-methoxy-3-(trifluoromethoxy)phenyl]-7-(piperazin-1-yl)-4H-pyrido[1,2-a]pyrimidin-4-one]: the melting point fell in the range of 158 to 162 °C. Also, the “maximum fold (Fold) increase” value in series [1] was “** (a fold increase between >1.2 and ≤1.35 is indicated by two stars (**))”. In addition, the EC (1.5-fold increase) in series [2] fell in the range of 0.3 to 1 µM.
`O=c1cc(-c2ccc(O)c(OC(F)(F)F)c2)nc2ccc(N3CCNCC3)cn12` [Cpd 82, 2-[4-hydroxy-3-(trifluoromethoxy)phenyl]-7-(piperazin-1-yl)-4H-pyrido[1,2-a]pyrimidin-4-one]: the melting point was 245 to 248 °C. Further, in series [1], the “EC1.5x for Smn protein expression” value was “** (an EC1.5× between >1 μM and ≤3 μM is indicated by two stars (**))”; the “maximum fold (Fold) increase” value was “***** (a fold increase >1.65 is indicated by five stars (*****))”. Moreover, the EC (1.5-fold increase) in series [2] lay in the range of 1 to 3 µM.
In the case of `COc1ccc(-c2cc(=O)n3cc(N4CCNCC4)ccc3c2C#N)cc1OC` [Cpd 85, 2-(3,4-dimethoxyphenyl)-4-oxo-7-(piperazin-1-yl)-4H-quinolizine-1-carbonitrile], the melting point lay within 199 to 202 °C. In addition, in series [1], the “EC1.5x for Smn protein expression” value was “* (An EC1.5× for Smn protein expression between >3 μM and ≤10 μM is indicated by one star (*))”; the “maximum fold (Fold) increase” value was “*** (a fold increase between >1.35 and ≤1.5 is indicated by three stars (***))”. In series [2], the EC (1.5-fold increase) lay in the range of 1 to 3 µM.
Regarding `COc1ccc(-c2cc(=O)n3cc(N4CCN[C@@H](C)C4)ccc3c2)cc1OC` [Cpd 91, 2-(3,4-dimethoxyphenyl)-7-[(3S)-3-methylpiperazin-1-yl]-4H-quinolizin-4-one], the melting point fell in the range of 243 to 245 °C. In series [1], the “maximum fold (Fold) increase” value is “** (a fold increase between >1.2 and ≤1.35 is indicated by two stars (**))”. For the same compound, the EC (1.5-fold increase) in series [2] lay in the range of 1 to 3 µM.
With `O=c1cc(-c2cncc(F)c2)nc2ccc(N3CCNCC3)cn12` [Cpd 92, 2-(5-fluoropyridin-3-yl)-7-(piperazin-1-yl)-4H-pyrido[1,2-a]pyrimidin-4-one], the melting point lay in the range of 201 to 208 °C. Besides, the “maximum fold (Fold) increase” value in series [1] is “** (a fold increase between >1.2 and ≤1.35 is indicated by two stars (**))”. In addition, the EC (1.5-fold increase) in series [2] lay within 1 to 3 µM.
In the case of `O=c1cc(-c2ccc3[nH]ccc3c2)nc2ccc(N3CCNCC3)cn12` [Cpd 98, 2-(1H-indol-5-yl)-7-(piperazin-1-yl)-4H-pyrido[1,2-a]pyrimidin-4-one], the melting point was 266 to 272 °C. In series [1], the “maximum fold (Fold) increase” value was “*** (a fold increase between >1.35 and ≤1.5 is indicated by three stars (***))”. In addition, the EC (1.5-fold increase) in series [2] is 1 to 3 µM.
`COc1ccc(-c2cc(=O)n3cc(N4CCNCC4)ccc3c2)cc1OC` [Cpd 106, 2-(3,4-dimethoxyphenyl)-7-(piperazin-1-yl)-4H-quinolizin-4-one] gave a melting point of 170 to 172 °C. Moreover, in series [1], the “EC1.5x for Smn protein expression” value is “** (an EC1.5× between >1 μM and ≤3 μM is indicated by two stars (**))”; the “maximum fold (Fold) increase” value is “**** (a fold increase between >1.5 and ≤1.65 is indicated by four stars (****))”. The EC (1.5-fold increase) in series [2] was 0.3 to 1 µM.
For `O=c1cc(-c2ccn3ccnc3c2)nc2ccc(N3CCNCC3)cn12` [Cpd 107, 2-(imidazo[1,2-a]pyridin-7-yl)-7-(piperazin-1-yl)-4H-pyrido[1,2-a]pyrimidin-4-one], the melting point fell in the range of 258 to 270 °C. Further, the “maximum fold (Fold) increase” value in series [1] is “** (a fold increase between >1.2 and ≤1.35 is indicated by two stars (**))”. In addition, in series [2], the EC (1.5-fold increase) was in the range of 0.3 to 1 µM.
Take `Cc1cn2cc(-c3cc(=O)n4cc(N5CCNCC5)ccc4n3)ccc2n1` [Cpd 109, 2-(2-methylimidazo[1,2-a]pyridin-6-yl)-7-(piperazin-1-yl)-4H-pyrido[1,2-a]pyrimidin-4-one]: the melting point fell in the range of 259 to 267 °C. Also, in series [1], the “EC1.5x for Smn protein expression” value is on record as “**** (an EC1.5x≤0.3 μM is indicated by four stars (****))”; the “maximum fold (Fold) increase” value was “**** (a fold increase between >1.5 and ≤1.65 is indicated by four stars (****))”. Further, the EC (1.5-fold increase) in series [2] was below 0.1 µM.
The compound `O=c1cc(-c2cnc3[nH]ccc3c2)nc2ccc(N3CCNCC3)cn12` [Cpd 128, 7-(piperazin-1-yl)-2-(1H-pyrrolo[2,3-b]pyridin-5-yl)-4H-pyrido[1,2-a]pyrimidin-4-one] registered a melting point of 252 to 255 °C. In addition, the “maximum fold (Fold) increase” value in series [1] is “*** (a fold increase between >1.35 and ≤1.5 is indicated by three stars (***))”. Moreover, the EC (1.5-fold increase) in series [2] is 0.3 to 1 µM.
